The values below are quoted from earlier work in US8633150B2, “Methods for inducing sustained immune response” (TNI Biotech, Inc., priority 2001, dated 2014).

The conditions of data set [1]: normal volunteers, HIV positive, and cancer patients; Plotnikoff, et al., 1997.
For data set [2] the following is noted: Bihari.

Read-outs that look alike come from different tables or passages of the source.

For the molecule `CSCC[C@H](NC(=O)[C@H](Cc1ccccc1)NC(=O)CNC(=O)CNC(=O)[C@@H](N)Cc1ccc(O)cc1)C(=O)O` [met-enkephalin, methionine enkephalin], the “toxicity in clinical studies” value in data set [1] is given as “no major toxicity”. For the same molecule, the half-life in plasma entry in data set [2] (et al., 1991) is “approximately 2 minutes”; in data set [2] (et al., 1991, listed as Met-enkelphalin) it was “approximately two”.
